The test system of data set [1] is endosomes of Jurkat lymphocytes. Kind of data set: Endosome disruption in Jurkat lymphocytes: release of carboxyfluorescein from disulfide probe Compound 2, flow cytometry. As to conditions: for Efficacy (% of max. 1): % change in cellular fluorescence relative to maximal response of Compound 1 (100%); for Efficacy (% of max. 1) / Efficacy (% of 1): Jurkat; for Efficacy (% of 1): % of the effect of compound 1, calculated span of dose-response curve, ± standard deviation. On the procedure:
(§1) The effects of the compounds of the invention on human Juikat leukemia cells were evaluated using flow cytometry-based assays of potency, efficacy, and toxicity. […] Analysis of flow cytometry data by non-linear regression was used to determine IC50 values for potency with the efficacy expressed as a percentage. […] Dose-dependent effects on cellular viability after 48 h at 37° C. in culture were also measured by flow cytometry.
(§2) The # represents the compound number in accordance with Tables A, B, and C. Concentrations of compound stock solutions were determined by absorbance measurements at 280 nm. Efficacy was determined as % change in cellular fluorescence relative to the maximal response of Compound 1, defined as 100%. Potencies and efficacies in Jurkat lymphocytes were measured by flow cytometry after treatment of cells with the compounds listed and the fluorescent probe Compound 2 (2.5 μM) for 14 hours. Toxicity to this cell line was determined by flow cytometry analysis of light scattering and counterstaining with PI after treatment for 48 h at 37° C. in culture. […] N.D., not determined.
Cells were treated with fluorescent molecular probe Compound 2 (2.5 μM) and endosome disruptors for 14 hours at 37° C. Enhanced cellular fluorescence resulting from release of the pH-sensitive fluorophore Compound 3 into the cytoplasm was quantified by flow cytometry.
Natural amino acids are represented by single letter codes. Codes for non-standard elements are as follows: Ch1: (3β-Cholest-5-en-3-yl-ammonio)pentanoyl; Ch2: (Cholester-3-yl)oxy-βAla-βAla; X: ε-Ahx; U: Aib; PB: Pacific Blue fluorophore. O: 3-(2-(2-(2-aminoethoxy)ethoxy)ethoxy)propanyl.

A further data set concerns Jurkat lymphocytes. As to conditions: 48 h. On the procedure:
as §1, §2

Data set [2] is described as follows: Thermodynamic solubility in PBS (pH 7.4). Format: physicochemical. The conditions noted are these: phosphate buffered saline, pH 7.4, Table 3; PBS pH 7.4, 24 h at 22° C.; read-out: Solubility. From the text:
Values in parentheses represent 95% confidence intervals. N.D., not determined.
Measurements represent duplicate or more replicates, with active peptides subjected to multiple replicates. ND: not determined. The peptide was non-toxic and soluble in cell culture medium at this concentration.

The mark [3] stands for this setting: read-out: Potency, Table 2, EC50 ± standard deviation, Jurkat lymphocytes, disulfide-linked fluorescent probe (2.5 μM), 14 h.

Converted amounts (≈) assume the structure as drawn. Like-named read-outs stand apart in the source and are kept apart here. Non-standard residues stand in square brackets, D forms with d. Residues, ends and D or L forms follow the SMILES beside them. *: point of attachment. Pentanoyl(5-NH-cholesteryl) = CC(C)CCC[C@@H](C)[C@H]1CC[C@H]2[C@@H]3CC=C4C[C@@H](NCCCCC(=O)*)CC[C@]4(C)[C@H]3CC[C@]12C; PEG3 = NCCOCCOCCOCCC(=O)O; Aib = CC(C)(N)C(=O)O; Ahx = NCCCCCC(=O)O; βAla = NCCC(=O)O

As usually defined, the IC50 is the concentration that inhibits the measured activity by half. Lower therefore signals greater potency in that assay. The molecule `CC(C)CCC[C@@H](C)[C@H]1CC[C@H]2[C@@H]3CC=C4C[C@@H](NCCCCC(=O)NCCC(=O)N[C@@H](CCC(=O)O)C(=O)N[C@@H](CCC(=O)O)C(=O)NCCOCCOCCOCCC(=O)NCCOCCOCCOCCC(=O)NC(C)(C)C(=O)NC(C)(C)C(=O)NC(C)(C)C(=O)NC(C)(C)C(=O)N[C@@H](Cc5c[nH]c6ccccc56)C(=O)N[C@@H](Cc5c[nH]c6ccccc56)C(=O)N[C@@H](C)C(=O)N[C@@H](Cc5ccc(O)cc5)C(=O)N[C@@H](Cc5c[nH]c6ccccc56)C(=O)N5CCC[C@H]5C(=O)N5CCC[C@H]5C(=O)N[C@H](C(=O)N[C@@H](C)C(=O)N[C@@H](C)C(N)=O)C(C)C)CC[C@]4(C)[C@H]3CC[C@]12C` [Compound 27, R = BEEOOUUUUWWAYWPPVAA-CONH2] ({Pentanoyl(5-NH-cholesteryl)-βAla}-EE[PEG3][PEG3][Aib][Aib][Aib][Aib]WWAYWPPVAA-NH2) registered an EC50 in data set [1] (14 h) of 0.2 µM. Moreover, in the data set with Jurkat lymphocytes, the IC50 turned out to be 3 µM.
The molecule `CC(C)CCC[C@@H](C)[C@H]1CC[C@H]2[C@@H]3CC=C4C[C@@H](NCCCCC(=O)NCCC(=O)N[C@@H](CCC(=O)O)C(=O)N[C@@H](CCC(=O)O)C(=O)NCCCCCC(=O)NC(C)(C)C(=O)NC(C)(C)C(=O)NC(C)(C)C(=O)N[C@@H](Cc5c[nH]c6ccccc56)C(=O)N[C@@H](C)C(=O)N[C@@H](C)C(=O)N[C@@H](Cc5ccc(O)cc5)C(=O)N[C@@H](Cc5c[nH]c6ccccc56)C(=O)N5CCC[C@H]5C(=O)N5CCC[C@H]5C(=O)N[C@H](C(=O)N[C@@H](C)C(N)=O)C(C)C)CC[C@]4(C)[C@H]3CC[C@]12C` [Compound 13, R = BEEXUUUWAAYWPPVA-CONH2] ({Pentanoyl(5-NH-cholesteryl)-βAla}-EE[Ahx][Aib][Aib][Aib]WAAYWPPVA-NH2) had an EC50 in data set [1] (14 h) of 0.7 µM. Further, in the data set on Jurkat lymphocytes, half-maximal inhibition (IC50) required 16 µM.
With `CC(C)CCC[C@@H](C)[C@H]1CC[C@H]2[C@@H]3CC=C4C[C@@H](NCCCCC(=O)NCCC(=O)N[C@@H](CCC(=O)O)C(=O)N[C@@H](CCC(=O)O)C(=O)NCCCCCC(=O)NCCCCCC(=O)NC(C)(C)C(=O)NC(C)(C)C(=O)NC(C)(C)C(=O)NC(C)(C)C(=O)N[C@@H](Cc5ccc(O)cc5)C(=O)N[C@@H](Cc5ccc(O)cc5)C(=O)N[C@@H](C)C(=O)N[C@@H](Cc5ccc(O)cc5)C(=O)N[C@@H](Cc5ccc(O)cc5)C(=O)N5CCC[C@H]5C(=O)N5CCC[C@H]5C(=O)N[C@H](C(=O)N[C@@H](C)C(N)=O)C(C)C)CC[C@]4(C)[C@H]3CC[C@]12C` [Compound 23, R = BEEXXUUUUYYAYYPPVA-CONH2] ({Pentanoyl(5-NH-cholesteryl)-βAla}-EE[Ahx][Ahx][Aib][Aib][Aib][Aib]YYAYYPPVA-NH2), the EC50 in data set [1] (14 h) was 0.1 µM. The same molecule showed an IC50 with Jurkat lymphocytes of 4 µM.
As to `CC(C)CCC[C@@H](C)[C@H]1CC[C@H]2[C@@H]3CC=C4C[C@@H](NCCCCC(=O)NCCC(=O)N[C@@H](CCC(=O)O)C(=O)N[C@@H](CCC(=O)O)C(=O)NCCCCCC(=O)NC(C)(C)C(=O)NC(C)(C)C(=O)N[C@@H](Cc5c[nH]c6ccccc56)C(=O)N[C@@H](Cc5c[nH]c6ccccc56)C(=O)N[C@@H](C)C(=O)N[C@@H](Cc5ccc(O)cc5)C(=O)N[C@@H](Cc5c[nH]c6ccccc56)C(=O)N5CCC[C@H]5C(=O)N5CCC[C@H]5C(=O)N[C@H](C(=O)N[C@@H](C)C(N)=O)C(C)C)CC[C@]4(C)[C@H]3CC[C@]12C` [Compound 10, R = BEEXUUWWAYWPPVA-CONH2] ({Pentanoyl(5-NH-cholesteryl)-βAla}-EE[Ahx][Aib][Aib]WWAYWPPVA-NH2), in data set [1] (14 h), the EC50 was 0.9 µM. This molecule also displayed an IC50 in the data set with Jurkat lymphocytes of 15 µM.
The molecule `CC(C)CCC[C@@H](C)[C@H]1CC[C@H]2[C@@H]3CC=C4C[C@@H](NCCCCC(=O)NCCC(=O)N[C@@H](CCC(=O)O)C(=O)N[C@@H](CCC(=O)O)C(=O)NCCCCCC(=O)NCCCCCC(=O)NC(C)(C)C(=O)NC(C)(C)C(=O)NC(C)(C)C(=O)NC(C)(C)C(=O)N[C@@H](Cc5c[nH]c6ccccc56)C(=O)N[C@@H](Cc5c[nH]c6ccccc56)C(=O)N[C@@H](C)C(=O)N[C@@H](Cc5ccc(O)cc5)C(=O)N[C@@H](Cc5c[nH]c6ccccc56)C(=O)N5CCC[C@H]5C(=O)N5CCC[C@H]5C(=O)N[C@H](C(=O)N[C@@H](C)C(N)=O)C(C)C)CC[C@]4(C)[C@H]3CC[C@]12C` [Compound 21, R = BEEXXUUUUWWAYWPPVA-CONH2] ({Pentanoyl(5-NH-cholesteryl)-βAla}-EE[Ahx][Ahx][Aib][Aib][Aib][Aib]WWAYWPPVA-NH2) yielded an EC50 in data set [1] (14 h) of 0.1 µM. In the data set on Jurkat lymphocytes, this molecule displayed an IC50 of 9 µM.
Take `CC(C)CCC[C@@H](C)[C@H]1CC[C@H]2[C@@H]3CC=C4C[C@@H](NCCCCC(=O)NCCC(=O)N[C@@H](CCC(=O)O)C(=O)N[C@@H](CCC(=O)O)C(=O)NCCCCCC(=O)NC(C)(C)C(=O)NC(C)(C)C(=O)NC(C)(C)C(=O)N[C@@H](Cc5c[nH]c6ccccc56)C(=O)N[C@@H](Cc5c[nH]c6ccccc56)C(=O)N[C@@H](C)C(=O)N[C@@H](Cc5c[nH]c6ccccc56)C(=O)N[C@@H](Cc5c[nH]c6ccccc56)C(=O)N5CCC[C@H]5C(=O)N5CCC[C@H]5C(=O)N[C@H](C(=O)N[C@@H](C)C(N)=O)C(C)C)CC[C@]4(C)[C@H]3CC[C@]12C` [Compound 19, R = BEEXUUUWWAWWPPVA-CONH2] ({Pentanoyl(5-NH-cholesteryl)-βAla}-EE[Ahx][Aib][Aib][Aib]WWAWWPPVA-NH2): the EC50 in data set [1] (14 h) is 1 µM. In the data set on Jurkat lymphocytes, this molecule yielded an IC50 of 20 µM.
Turning to `CC(C)[C@H](NC(=O)[C@H](C)NC(=O)[C@@H]1CCCN1C(=O)[C@@H]1CCCN1C(=O)[C@H](Cc1c[nH]c2ccccc12)NC(=O)[C@H](Cc1ccc(O)cc1)NC(=O)[C@H](C)NC(=O)[C@H](Cc1c[nH]c2ccccc12)NC(=O)[C@H](Cc1c[nH]c2ccccc12)NC(=O)C(C)(C)NC(=O)C(C)(C)NC(=O)C(C)(C)NC(=O)C(C)(C)N)C(N)=O` [Compound 51] (H-[Aib][Aib][Aib][Aib]WWAYWPPAV-NH2), the solubility thermodynamic at 24 h in data set [2] came out at 48 ± 3 µM (≈ 72.7 µg/mL). For the same molecule, the “Efficacy (% of max. 1)” value in data set [1] (Table 1, 14 hours) was below 50%. In data set [1] (setting [3]), the EC50 is above 15 µM.
As to `CC(C)[C@H](NC(=O)[C@@H](NC(=O)[C@H](C)NC(=O)[C@@H]1CCCN1C(=O)[C@H](Cc1c[nH]c2ccccc12)NC(=O)[C@H](Cc1ccc(O)cc1)NC(=O)[C@H](C)NC(=O)[C@H](Cc1c[nH]c2ccccc12)NC(=O)[C@H](Cc1c[nH]c2ccccc12)NC(=O)C(C)(C)NC(=O)C(C)(C)NC(=O)C(C)(C)NC(=O)C(C)(C)N)C(C)C)C(N)=O` [Compound 50] (H-[Aib][Aib][Aib][Aib]WWAYWPAVV-NH2), in data set [2], the solubility thermodynamic at 24 h was determined as 22 ± 2 µM (≈ 33.4 µg/mL). Moreover, in data set [1] (Jurkat endosome disruption assay), the “Endosome disruption activity (in words)” value is recorded as “substantial activity”. In addition, in data set [1] (Table 1, 14 hours), the “Efficacy (% of max. 1)” value was found to be 71%. Further, the “Efficacy (% of 1)” value in data set [1] (Table 2, 14 h) is recorded as 54 ± 3%. Moreover, the EC50 in data set [1] (setting [3]) was determined as 9 ± 3 µM.
`CC(C)[C@H](NC(=O)[C@@H](NC(=O)[C@@H]1CCCN1C(=O)[C@@H]1CCCN1C(=O)[C@H](C)NC(=O)[C@H](Cc1ccc(O)cc1)NC(=O)[C@H](C)NC(=O)[C@H](Cc1c[nH]c2ccccc12)NC(=O)[C@H](Cc1c[nH]c2ccccc12)NC(=O)C(C)(C)NC(=O)C(C)(C)NC(=O)C(C)(C)NC(=O)C(C)(C)N)C(C)C)C(N)=O` [Compound 48] (H-[Aib][Aib][Aib][Aib]WWAYAPPVV-NH2): the solubility thermodynamic at 24 h in data set [2] was found to be 86 ± 5 µM (≈ 123 µg/mL). The “Efficacy (% of max. 1)” value in data set [1] (Table 1, 14 hours) is <<50%. Also, the “Efficacy (% of 1)” value in data set [1] (Table 2, 14 h) is below 10%.
For the molecule `CC(C)[C@H](NC(=O)[C@@H](NC(=O)[C@@H]1CCCN1C(=O)[C@H](C)NC(=O)[C@H](Cc1c[nH]c2ccccc12)NC(=O)[C@H](Cc1ccc(O)cc1)NC(=O)[C@H](C)NC(=O)[C@H](Cc1c[nH]c2ccccc12)NC(=O)[C@H](Cc1c[nH]c2ccccc12)NC(=O)C(C)(C)NC(=O)C(C)(C)NC(=O)C(C)(C)NC(=O)C(C)(C)N)C(C)C)C(N)=O` [Compound 49] (H-[Aib][Aib][Aib][Aib]WWAYWAPVV-NH2), in data set [2], the solubility thermodynamic at 24 h worked out at 21 ± 2 µM (≈ 31.9 µg/mL). For the same molecule, the “Efficacy (% of max. 1)” value in data set [1] (Table 1, 14 hours) is 45%. The “Efficacy (% of 1)” value in data set [1] (Table 2, 14 h) is recorded as 35 ± 2%. Further, in data set [1] (read-out: Potency (EC50), Table 1, Jurkat lymphocytes, probe Compound 2 (2.5 μM), 14 hours, 95% confidence interval in neighbouring cell), the EC50 came to 12 µM.
With Ac-AAAWWAYWPPVA-NH2 [Compound 40], the solubility thermodynamic at 24 h in data set [2] was 41 ± 2 µM. Moreover, in data set [1] (Table 1, 14 hours), the “Efficacy (% of max. 1)” value is given as <<50%. For the same molecule, the EC50 in data set [1] (setting [3]) is above 15 µM.

The record behind these values is patent publication US10766928B2, “Targeted conformationally-constrained kinked endosomal disrupting peptides” (priority 2012, dated 2020).
